From patent US11643665B2, “Nucleotide sequences encoding Fasciated EAR3 (FEA3) and methods of use thereof” (CORTEVA AGRISCIENCE LLC, priority 2012, dated 2023)
Where no end group is shown, it is not given here.

Experiments:
Assay type in all cases: in vivo, maize
[1] = tested on: B73 and homozygous fea2 and fea3 mutant seedlings; test: Clavata3 peptide root assay (primary root length of seedlings on agar plates); conditions: agar plates containing CLV3 peptide, after 7 days
Procedure: In Arabidopsis, CLAVATA2 activity can be detected by responses of root growth to CLAVATA3 (CLV3) peptide. To analyze whether FEA3 and FEA2 respond to CLV3, and determine if they act in a common pathway a CLV3 peptide assay was performed. B73 and homozygous fea2 and fea3 mutant seedlings were germinated and grown on agar plates containing CLV3 peptide. As a control, seedlings were also grown on plates containing a mutated version of the peptide and on plates without any peptide. After 7 days the length of the primary root was measured.

[2] = tested on: B73 and fea3 mutant seedlings; test: Clavata3-like peptide root assay (primary root length of seedlings on agar plates); conditions: 5 μM or 10 μM peptide, after 7 days
Procedure: To analyze whether FEA3 responds to CLV3-like peptides, and determine if they act in a common pathway, a CLV3 peptide assay was performed. The peptides used were ZCL3 (Zea mays CLE-like 3; SEQ ID NO:32), FCP1 (SEQ ID NO:33), CLV3 (SEQ ID NO:34), CLE20 (SEQ ID NO:35), CLE40 (SEQ ID NO:36), ZCL21 ([…]; SEQ ID NO:37), and ZCL23 (Zea mays CLE-like 23; SEQ ID NO:38).
The ZCL peptides were found in maize sequences in the NCBI database by homology search using the CLV3, CLE, and rice related peptides (Fiers et al Plant Cell (2005), 17: 2542-2553; Suzaki et al (2008), Plant Cell, 20: 2049-2058).
B73 and fea3 mutant seedlings were germinated and grown on agar plates containing each 5 μM or 10 μM peptide. As a control, seedlings were also grown on plates containing a scramble of the peptide. After 7 days the length of the primary root was measured.

Wt and fea3 embryos = test: Embryo culture assay in presence of FCP1 peptide (embryo SAM growth); conditions: 20 μM peptide, two weeks after planting
Procedure: Wt and fea3 embryos were cultured in the presence of 20 μM FCP1 peptide (SEQ ID NO:33) or 20 μM scrambled peptide. For measurement of embryo SAM growth, about 10 days after pollination, embryos were sterilized (whole corn was sterilized, not individual young seeds) and dissected embryos and put the embryos down on the media and the measurement of SAM size was done two weeks after planting (embryo culture).

Row | Substance | root growth response (length of the primary root) ([1]; B73 wild type plants) | root growth response (length of the primary root) ([1]; homozygous fea2 mutants) | root growth response (length of the primary root) ([1]; homozygous fea3 mutants) | root growth response (length of the primary root) ([2]; B73 wild type plants) | root growth response (length of the primary root) ([2]; fea3 mutants) | embryo SAM growth (SAM size) (Wt and fea3 embryos; WT embryos) | embryo SAM growth (SAM size) (Wt and fea3 embryos; fea3 embryos)
1 | CLV3: CLAVATA3 (CLV3) peptide (RTVPSGPDPLHH; ends and bridges not checked; listed as Arabidopsis thaliana) | strong root growth inhibition | do not respond | respond | strong root growth inhibition |  |  | 
2 | FCP1: CLV3-like peptide used for the CLV3/CLV3-like peptide assay (REVPTGPDPIHH; listed as Oryza sativa) |  |  |  | strong root growth inhibition | less sensitivity | strongly inhibited | resistance
3 | ZCL3: Zea mays CLE-like 3 peptide, found in maize sequences by homology search using CLV3, CLE and rice related peptides (RPVPSGPDPIHH; Zea mays) |  |  |  | strong root growth inhibition |  |  | 
